Four compounds from US20130149701A1, “METHODS OF IDENTIFYING THERAPEUTIC AGENTS FOR TREATING PERSISTER AND BACTERIAL INFECTION” (priority 2010, published 2013) can be followed below.

For assay [1], the target named is T1, Endonuclease IV (Rv0670) (Mycobacterium tuberculosis, UniProt P9WQ13). It is filed as biochemical, M. tuberculosis.
For assay [2], the target named is T1, Endonuclease IV (Rv0670). Kind of assay: Endonuclease IV (Rv0670) activity on oligonucleotides with AP, U or H lesions. In kind it is biochemical, M. tuberculosis. Particulars: oligos with AP, U or H lesion; POA 2, 4, 8, 16, 25 and 34 mM; INH and PZA 25 mM.
Assay [3] deals with T2, wild type M. tuberculosis RpsA binding to tmRNA (Mycobacterium tuberculosis, UniProt P9WH43).
T2 sequence (P9WH43 1-481): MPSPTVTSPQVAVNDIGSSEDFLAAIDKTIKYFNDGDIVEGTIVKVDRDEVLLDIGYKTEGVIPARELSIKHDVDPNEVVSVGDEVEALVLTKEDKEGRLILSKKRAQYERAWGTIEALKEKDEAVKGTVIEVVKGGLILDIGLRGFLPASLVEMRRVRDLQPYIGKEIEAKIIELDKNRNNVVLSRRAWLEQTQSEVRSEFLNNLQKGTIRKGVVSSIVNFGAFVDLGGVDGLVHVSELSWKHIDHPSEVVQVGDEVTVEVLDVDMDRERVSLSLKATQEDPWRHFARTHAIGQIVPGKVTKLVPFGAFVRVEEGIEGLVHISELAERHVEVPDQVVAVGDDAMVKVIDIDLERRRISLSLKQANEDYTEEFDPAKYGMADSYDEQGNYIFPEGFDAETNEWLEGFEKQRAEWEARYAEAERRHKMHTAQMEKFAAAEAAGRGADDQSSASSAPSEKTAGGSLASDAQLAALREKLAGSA
The conditions noted are these: for effect on tmRNA binding to wild type RpsA: FIG. 5A, POA Lanes 2-7, PZA (200 g/ml), INH (1 g/ml).

The target in assay [4] is M. tuberculosis ribosome, tmRNA and SmpB (trans-translation) (Mycobacterium tuberculosis, UniProt P9WH43). It is filed as biochemical.
The target in assay [5] is ribosome from E. coli (trans-translation) (Escherichia coli, UniProt P0AG67). It is filed as biochemical.
Assay [6] deals with ribosome from M. smegmatis (trans-translation) (Mycolicibacterium smegmatis, UniProt A0QYY6). It is filed as biochemical.
Assay [7] has as its target M. tuberculosis H37Rv RpsA (WT) (Mycobacterium tuberculosis, UniProt P9WH43). Kind of assay: biochemical. It is filed as binding.
The next assay has as its system M. tuberculosis. The assay can be described thus: MIC of POA as stated in the text. In kind it is cell-based. Particulars: Mycobacterium tuberculosis, read-out: MIC concentration.
The target in the next assay is T3, M. smegmatis RpsA (Mycolicibacterium smegmatis, UniProt A0QYY6).
T3 construct: made in house
T3 sequence (A0QYY6 1-479): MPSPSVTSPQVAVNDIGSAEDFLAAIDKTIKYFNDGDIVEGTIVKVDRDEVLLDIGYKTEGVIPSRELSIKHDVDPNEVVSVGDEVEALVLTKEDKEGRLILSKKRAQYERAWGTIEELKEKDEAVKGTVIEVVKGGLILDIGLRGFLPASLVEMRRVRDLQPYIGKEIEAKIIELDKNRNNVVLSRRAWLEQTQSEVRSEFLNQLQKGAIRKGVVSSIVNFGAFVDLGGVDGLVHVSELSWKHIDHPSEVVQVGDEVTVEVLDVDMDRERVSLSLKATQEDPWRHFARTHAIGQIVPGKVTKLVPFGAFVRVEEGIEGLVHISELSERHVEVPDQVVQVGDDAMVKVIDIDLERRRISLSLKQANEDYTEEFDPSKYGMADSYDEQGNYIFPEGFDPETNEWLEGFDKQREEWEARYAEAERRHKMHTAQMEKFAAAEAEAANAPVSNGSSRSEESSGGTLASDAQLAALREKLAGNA
In kind it is binding. The conditions noted are these: 10 μM RpsA titrated with 100 μM POA.

For assay [8], the target named is M. tuberculosis ribosome (canonical translation) (Mycobacterium tuberculosis, UniProt P9WH43). In kind it is biochemical.
The subject of assay [9] is M. tuberculosis cell lysates. In kind it is binding.
In assay [10] the test system is Mtb clinical isolate DHM444 / H37Rv. The assay can be described thus: microbe, parasite or virus in culture. The conditions noted are these: Mycobacterium tuberculosis, PZA, sensitive control strain H37Rv. It is filed as cell-based, M. tuberculosis.

Values after ≈ are worked out from the molar mass of the structure shown. “Also recorded” adds a separate entry of the source.

T1 sequence (P9WQ13 whole entry): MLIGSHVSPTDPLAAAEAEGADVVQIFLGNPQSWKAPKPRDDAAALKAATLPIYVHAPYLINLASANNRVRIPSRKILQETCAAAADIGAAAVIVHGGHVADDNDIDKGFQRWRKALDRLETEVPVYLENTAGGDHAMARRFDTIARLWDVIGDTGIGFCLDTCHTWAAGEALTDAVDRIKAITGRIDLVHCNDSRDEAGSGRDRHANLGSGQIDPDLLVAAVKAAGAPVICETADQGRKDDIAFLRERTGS

As to `NNC(=O)c1ccncc1` [INH, isoniazid], the “inhibition of Rv0670 (Endo IV/V) activity” value at Endonuclease IV (Rv0670) [1] is “no inhibition and not”. Besides, the “inhibition of Rv0670 endonuclease activity” value on Endonuclease IV (Rv0670) [2] is “did not inhibit”. In addition, the “effect on tmRNA binding to wild type RpsA” value (from here on “effect on tmRNA binding”) in [3] is recorded as “no effect; also recorded: not affected”.
`O=C(O)c1cnccn1` [POA, 2-pyrazinecarboxylic acid]: in assay [4], the “concentration inhibiting trans-translation of DHFR with the rare codon cluster” value is no less than 25 µg/mL, the “inhibition of trans-translation of the DHFR product” value is recorded as “inhibited” and the “trans-translation product DHFR” value is reported as “still present”. Besides, the “inhibition of trans-translation, densitometry of band intensities” value in [4] (n=5) was “Concentration-dependent inhibition”. Moreover, the inhibition of trans-translation entry in assay [5] was “nor did it inhibit; also recorded: did not inhibit”. Besides, in assay [6], the inhibition of trans-translation entry is recorded as “nor did it inhibit; also recorded: did not inhibit”. For the same compound, the “inhibition of Rv0670 (Endo IV/V) activity” value on Endonuclease IV (Rv0670) [1] is given as “inhibited the activity of Rv0670 (Endo IV/V) completely”. Moreover, the “reversibility of Endo IV/V inhibition” value at Endonuclease IV (Rv0670) [1] (dilution or dialysis) was “irreversibly”. Further, the “binding to wild type RpsA (ITC)” value in assay [7] was “bound; also recorded: specifically bind”. In addition, in assay [7] (pH 7.4), the “ΔS (ITC)” value came to 27.6 cal·mol^−1·K^−1. Also, the Kd in assay [7] (read-out: K (binding constant, ITC)) was 133 nM. Moreover, the MIC in the assay with M. tuberculosis came to 50 µg/mL. In addition, the “binding to M. smegmatis RpsA (ITC)” value on M. smegmatis RpsA was “only weakly; also recorded: only very weakly”. The “inhibition of Rv0670 endonuclease activity” value against Endonuclease IV (Rv0670) [2] was “inhibited Rv0670 activity specifically in a dose dependent manner; also recorded: specific inhibition”. The “effect on tmRNA binding” value in [3] was “Concentration-dependent inhibition”. Besides, the “inhibition of wild type Mtb RpsA binding to tmRNA” value in assay [3] (POA at its MIC concentration of 50 μg/ml) is given as “inhibited”. Moreover, in [8], the “effect on conventional protein synthesis (canonical translation)” value is listed as “no effect; also recorded: did not inhibit” and the “effect on translation of the normal DHFR gene” value is “did not affect”. Moreover, in assay [9] (Examples 8-16, columns with 5-hydroxyl- and 6-hydroxyl-2-pyrazinecarboxylic acid), the “proteins bound to POA identified by Mass Spectrometry” value amounted to 9 proteins. Besides, in [9] (M. tuberculosis cell lysates, column with 5-hydroxyl-2-pyrazinecarboxylic acid, FIG. 1), the “proteins that bound to POA” value is on record as “several proteins”. Further, in assay [9] (POA-linked column, mass spectrometry), the “major POA binding protein” value is reported as “RpsA”.
Consider `NC(=O)c1cnccn1` [PZA, Pyrazinamide], for which the “inhibition of Rv0670 (Endo IV/V) activity” value at Endonuclease IV (Rv0670) [1] was “no inhibition and not”. In [7], the “binding to wild type RpsA (ITC)” value is recorded as “did not bind”. For the same compound, the MIC in assay [10] is 100 µg/mL (≈ 812 µM). In addition, the “inhibition of Rv0670 endonuclease activity” value on Endonuclease IV (Rv0670) [2] is on record as “did not inhibit”. In addition, the “effect on tmRNA binding” value in assay [3] is listed as “no effect; also recorded: not affected”.
Consider `O=C(O)c1cccnc1` [nicotinic acid], for which, in assay [4], the inhibition of trans-translation entry is “did not inhibit”.
